Assay [1] concerns P-388 lymphocytic leukemia cells. Description: cell culture assay using P-388 lymphocytic leukemia cells (cytotoxicity of N-debenzoyl-N-acyltaxols). It counts as cell-based. As to conditions: Mus musculus, P388; P-388 cell culture; taxol reference; read-out: Absolute ED50. As for the experimental part:
For details of the cell culture assay, see Abbott, B. J., "Protocol 14 of Instruction 275," National Cancer Institute, National Institutes Of Health, Jan. 24, 1978. N-acyltaxol analogs are important analogs of taxol for anticancer treatment. The present invention provides a simple way of preparing such analogs from taxol or cephalomannine without removing the C-13 side-chain.
*Cytotoxicity is recorded as ED50 value relative to taxol determined
in the same assay. Absolute ED50 of taxol is approximately 0.03

The conditions of assay [2]: in some assays; reported in literature; cited from earlier work.

This is an account of results in patent US5470866A, “Method for the conversion of cephalomannine to taxol and for the preparation of n-acyl analogs of taxol” (Virginia Polytechnic Institute and State University, priority 1994, dated 1995).

SMILES strings stand for the structures. Converted amounts (≈) assume the structure as drawn.

As for `CC(=O)O[C@H]1C(=O)[C@@]2(C)[C@H]([C@H](OC(=O)c3ccccc3)[C@]3(O)C[C@H](OC(=O)[C@H](O)[C@@H](NC(=O)c4ccccc4)c4ccccc4)C(C)=C1C3(C)C)[C@]1(OC(C)=O)CO[C@@H]1C[C@@H]2O` [taxol], in assay [1], the IC50 was roughly 0.03 µg/mL (≈ 0.0351 µM).
With `CC(=O)O[C@@]12CO[C@@H]1C[C@H](O)[C@@]1(C)C(=O)[C@H](O)C3=C(C)[C@@H](OC(=O)[C@H](O)[C@@H](NC(=O)OC(C)(C)C)c4ccccc4)C[C@@](O)([C@@H](OC(=O)c4ccccc4)[C@H]21)C3(C)C` [taxotere], in assay [2], the “activity relative to taxol” value is “approximately twice as active as taxol”.
